Laboratory results as given in ChEMBL document CHEMBL1201862, “PubChem BioAssay data set” (2004).
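Tested at 5 concentrations; 48 h exposure; 96-well plates; endpoints linearly interpolated, else capped at highest concentration. Abbreviation: GI50, concentration required for 50% inhibition of growth.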 Activity calls are given as the source filed them. Rule as the data show it: active = GI50 up to about 1.1 µM and inactive = higher.

Experiments:
Test in all cases: NCI anticancer screen, dose series, 48 h
[1] = test system: 786-0
[2] = test system: A498
[3] = test system: A549
[4] = test system: ACHN
[5] = test system: BT-549
[6] = test system: CAKI-1
[7] = test system: CCRF-CEM
[8] = test system: COLO 205
[9] = test system: DU-145
[10] = test system: EKVX
[11] = test system: HCC 2998
[12] = test system: HCT-116
[13] = test system: HCT-15
[14] = test system: HL-60
[15] = test system: HOP-62
[16] = test system: HOP-92
[17] = test system: HT-29
[18] = test system: Hs-578T
[19] = test system: IGROV-1
[20] = test system: K562
[21] = test system: KM12
[22] = test system: LOX IMVI
[23] = test system: M14
[24] = test system: MCF7
[25] = test system: MDA-MB-231
[26] = test system: MDA-MB-435
[27] = test system: MDA-N
[28] = test system: MOLT-4
[29] = test system: Malme-3M
[30] = test system: NCI-H226
[31] = test system: NCI-H23
[32] = test system: NCI-H460
[33] = test system: NCI-H522
[34] = test system: NCI/ADR-RES
[35] = test system: OVCAR-3
[36] = test system: OVCAR-4
[37] = test system: OVCAR-5
[38] = test system: OVCAR-8
[39] = test system: PC-3
[40] = test system: RPMI-8226
[41] = test system: RXF 393
[42] = test system: SF-268
[43] = test system: SF-295
[44] = test system: SF-539
[45] = test system: SK-MEL-28
[46] = test system: SK-MEL-2
[47] = test system: SK-MEL-5
[48] = test system: SK-OV-3
[49] = test system: SN12C
[50] = test system: SNB-19
[51] = test system: SNB-75
[52] = test system: SR
[53] = test system: SW-620
[54] = test system: T47D
[55] = test system: TK-10
[56] = test system: U-251
[57] = test system: UACC-257
[58] = test system: UACC-62
[59] = test system: UO-31

Measured: GI50

COc1ccc2nc3cccc([N+](=O)[O-])c3c(NCCO)c2c1
5.94 nM: [13]
active: [1] 11.2 nM | [2] 50.7 nM | [3] 19.8 nM | [4] 10.5 nM | [5] 0.00565 µM | [6] 18.3 nM | [7] 47.9 nM | [8] 5.27 nM | [9] 0.011 µM | [10] 23.8 nM | [11] 14.6 nM | [12] 1.78 nM | [14] 14.8 nM | [15] 0.0208 µM | [16] 19.5 nM | [17] 6.15 nM | [18] 16.9 nM | [19] 162 nM | [20] 1.99 nM | [21] 25.5 nM | [22] 1.49 nM | [23] 7.62 nM | [24] 18 nM | [25] 0.0138 µM | [26] 6.56 nM | [27] 8.95 nM | [28] 25.5 nM | [29] 16 nM | [30] 0.0378 µM | [31] 21.9 nM | [32] 3.78 nM | [33] 17 nM | [34] 18.2 nM | [35] 14.9 nM | [36] 38.6 nM | [37] 20.3 nM | [38] 8.3 nM | [39] 23.2 nM | [40] 2.35 nM | [41] 12.6 nM | [42] 15.7 nM | [43] 68.4 nM | [44] 0.0182 µM | [45] 27.7 nM | [46] 17.5 nM | [47] 18.8 nM | [48] 0.185 µM | [49] 19 nM | [50] 0.0486 µM | [51] 0.0942 µM | [52] 1 nM | [53] 1.64 nM | [54] 141 nM | [55] 0.0336 µM | [56] 21.1 nM | [57] 0.0277 µM | [58] 0.0182 µM | [59] 21.8 nM

CC1=C(C(=O)Nc2ccccc2)C2(CCCCC2)C(C#N)=C(SCC(=O)Nc2ccc(Br)cc2)N1
inactive: [1] 4100 nM | [2] 4560 nM | [3] 3770 nM | [4] 4450 nM | [5] 8.15 µM | [6] 4760 nM | [7] 1460 nM | [8] 2110 nM | [9] 7.76 µM | [10] 2150 nM | [11] 2540 nM | [12] 2510 nM | [14] 3180 nM | [15] 10.1 µM | [16] 3110 nM | [17] 2450 nM | [18] 3570 nM | [19] 3340 nM | [20] 3340 nM | [21] 3200 nM | [22] 3430 nM | [23] 3610 nM | [24] 4510 nM | [25] 7.33 µM | [26] 4470 nM | [27] 3410 nM | [28] 2820 nM | [29] 1820 nM | [30] 6.84 µM | [31] 4100 nM | [32] 3220 nM | [33] 2060 nM | [34] 3880 nM | [35] 3270 nM | [36] 4910 nM | [37] 4990 nM | [38] 5580 nM | [39] 2880 nM | [40] 2080 nM | [41] 4540 nM | [42] 2200 nM | [43] 4200 nM | [44] 13.3 µM | [45] 5730 nM | [46] 2540 nM | [47] 3460 nM | [48] 8.79 µM | [49] 4230 nM | [50] 6.49 µM | [51] 8.51 µM | [52] 2310 nM | [53] 5430 nM | [54] 5190 nM | [55] 6.58 µM | [56] 4510 nM | [57] 7.28 µM | [58] 6.85 µM | [59] 1390 nM
4230 nM: [13]
